Assay results as given in ChEMBL document CHEMBL3885881, “DrugMatrix”.

Organism: Rattus norvegicus
Type: toxicity, organism-based, Sprague-Dawley
Details: in vivo, sc, 0 mg/kg, 24 h, route mini-PUMP - SUBCUTANEOUS, dose level Control, time 1 day, vehicle 100 % SALINE
Description: DrugMatrix - Regimen: Single

## CNC[C@H](O)c1ccc(O)c(O)c1 [EPINEPHRINE]
Tissue Blood
  ABSOLUTE EOSINOPHIL: 26.17 CELLS/uL
  ABSOLUTE LYMPHOCYTE: 10985.83 CELLS/uL
  ABSOLUTE MONOCYTE: 234.5 CELLS/uL
  ABSOLUTE SEGMENTED NEUTROPHIL: 1753.5 CELLS/uL
  BASOPHIL: 0%
  EOSINOPHIL: 0.17%
  ERYTHROCYTE COUNT: 5.64 x10E6/uL
  HEMOGLOBIN: 12.68 G/DL
  LEUKOCYTE COUNT: 13 x10E3/uL
  LYMPHOCYTE: 84.5%
  MEAN CORPUSCULAR HEMOGLOBIN: 22.5 pg
  MEAN CORPUSCULAR HEMOGLOBIN CONCENTRATION: 36.78 G/DL
  MEAN CORPUSCULAR VOLUME: 61.18 fL
  NEUTROPHIL: 13.5%
  NUCLEATED RED BLOOD CELLS: 0.17 /100WBC
  PLATELET COUNT: 679.17 x10E3/uL
Tissue Plasma
  ALANINE AMINOTRANSFERASE: 42.67 u/L
  ALBUMIN: 3.77 G/DL
  ALKALINE PHOSPHATASE: 291.17 u/L
  ASPARTATE AMINOTRANSFERASE: 74.5 u/L
  BLOOD UREA NITROGEN: 15.33 mg/dL
  CARBON DIOXIDE: 30 mmol/L
  CHLORIDE: 100.83 MEQ/L
  CHOLESTEROL: 65.33 mg/dL
  CREATININE: 0.15 mg/dL
  LACTATE DEHYDROGENASE: 162.67 u/L
  LIPASE: 8.5 u/L
  PHOSPHORUS: 12.2 mg/dL
  POTASSIUM: 5.73 MEQ/L
  SODIUM: 144.7 MEQ/L
  TOTAL BILIRUBIN: 0.15 mg/dL
  TOTAL PROTEIN: 5.87 G/DL
  URIC ACID: 1.93 mg/dL
